Measurements reported in patent US20060051358A1, “Immune response assessment method” (Baylor Research Institute, priority 2004, published 2006).

Experiments:
Type in all cases: cell-based, human
[1] = system: PBMCs obtained from melanoma patients; assay: EPIMAX: PBMC culture with peptides or peptide clusters, multiplex bead cytokine assay (Luminex)
[2] = system: T cells in melanoma patient PBMCs; assay: Intracellular cytokine detection assay (flow cytometry); settings: 8 hours with anti CD28/CD49d mAbs and monensin
Description: FIG. 12A is a graph that depicts the immune response of a melanoma patient as evaluated according the present invention. PBMCs obtained before DC vaccination and post 8 DC vaccinations from a melanoma patient (same as FIG. 10) were stimulated with single 15-mer MART-1 peptides or diluent. The levels of IL-1a and IP-10 in the culture supernatants at 48 h of culture are shown. […] To examine this hypothesis, we used a different well-established methodology, intracellular cytokine detection assay. The same PBMCs were stimulated for 8 h with MART-1 15-mer single peptides in the presence of anti-CD28/CD49d mAb and monensin. After permeabilization of the cell membrane, the cells were stained with anti-IFN-γ mAb and the IFN-γ+ populations were analyzed with a flowcytometer (FIG. 12B).
The same patient's PBMCs were stimulated for 8 hours with MART-1 15-mer peptide#10 in the presence of antiCD28/CD49d mAb and monensin. The production of IL-2 were analyzed by staining with specific mAbs.
The same patient's PBMCs were stimulated for 8 hours with MART-1 15-mer peptide#11 in the presence of antiCD28/CD49d mAb and monensin. The production of IL-5 were analyzed by staining with specific mAbs.
(§1) FIGS. 29A-D are graphs that depict the immune response of a melanoma patients as evaluated according the present invention. PBMCs obtained from a melanoma patient were stimulated with clusters of peptides or individual peptides encoding NY-ESO1. IL-10 levels in culture supernatant at 48 hours of culture are shown (FIG. 29A). […] To explore the origin of IL-10 production, the PBMCs were stimulated with peptide#39 in the presence of anti CD28/CD49d mAbs and monensin for 8 hours, and stained with IL-10 specific mAb. […] Next, to evaluate whether this IL-10 producing T cells had regulatory properties, PBMCs stimulated with peptide #39 or irrelevant 15-mer peptide were added in transwells to a “third party” MLR to test suppression of T cell expansion by the release of soluble mediators. The MLR used CFSE-labeled CD4^+T cells and allogeneic mature DCs, both from healthy volunteers, in order to avoid the effect of peptide-specific T cell response.

[3] = system: CFSE-labeled CD4+ T cells and allogeneic mature DCs; assay: Third party MLR suppression assay in transwells; settings: patient's PBMC stimulated with peptide added in transwells
Description: as §1

[4] = system: CD4+ / CD8+ T cells in melanoma patient PBMCs; assay: CFSE dilution T cell proliferation assay, melanoma patient PBMCs; settings: epitopes for Th0, Th1, Th2 cells; patient 094-012, Post
[5] = system: CD4+ / CD8+ T cells in melanoma patient PBMCs; assay: as above; settings: epitopes for Th0, Th1, Th2 cells
Excerpt: FIG. 13 depicts the immune response of a melanoma patient as evaluated according the present invention. CFSE (5,6-carboxyfluorescein diacetate succinimidyl ester) is a tracer dye that permits to identify the number of cell division with a flowcytometer. As EPIMAX is a non-destructive assay, we combined with EPIMAX and CFSE technology to determine the proliferative capacity of antigen-specific T cells. […] PBMCs obtained from the same melanoma patient (same as FIG. 10) were first stained with 1 uM of CFSE, and stimulated with either clusters of overlapping peptides or individual peptides encoding MART-1. On day 8 of culture, the cells were stained with CD8-PE, CD3-PerCP, and CD4-APC, and analyzed T cell proliferation in response to peptide stimulation.
(§2) FIG. 14 depicts the immune response of a melanoma patient as evaluated according the present invention. PBMCs obtained from the same melanoma patient (same as FIG. 10) were first stained with 1 μM of CFSE, and stimulated with individual peptides encoding MART-1 in triplicates. On day 8 of culture, the cells were stained with CD8-PE, CD3-PerCP, and CD4-APC, and analyzed T cell proliferation in response to peptide stimulation.
as §2, with “FIGS. 21A-B” for “FIG. 14”, “19)” for “10)”, “stimulation. […] FIG. 21B depicts the CFSE-diluted CD4+ T cell populations in response to each MART-1 15-mer peptide within the CD4^+ T cell population.” for “stimulation.”
FIGS. 22 A-C depicts the immune response of a melanoma patient as evaluated according the present invention. PBMCs obtained from a HLA-A2^neg melanoma patient who received DC vaccinations were first stained with 1 μM of CFSE, and stimulated with clusters of peptides encoding NY-ESO1. On day 8 of culture, the cells were stained with CD8-PE, CD3-PerCP, and CD4-APC, and analyzed T cell proliferation in response to peptide stimulation was analyzed based on CFSE dilution with a flowcytometer. […] FIG. 22B depicts the IL-2 levels in the culture supernatant at 48 hours of culture. […] To identify the epitope for CD4+ T cells, CFSE-stained PBMCs were stimulated with individual peptides within NY-ESO1 cluster#8. The proliferating CD4+ T cells were analyzed based on CFSE dilution with a flowcytometer on day 8.

[6] = epitopes for Th0, Th1, Th2 cells, patient 094-012, Post

NY-ESO1 p39: 15-mer of NY-ESO1 library, residues 153-167 (LQQLSLLMWITQCFL; UniProt P78358 153-167, looked up, fragment)
Type of response ([1]; epitopes for CD8+ T cells, patient 094-007, Post): 1 | Type of response ([1]; epitopes for CD8+ T cells, patient 094-007, Pre): 1 | CD4+ T cells producing IL-10 [2]: about 0.11% | proliferation in third party MLR [3]: significantly suppressed proliferation in the MLR

gp100 p78: 15-mer of gp100 library, residues 309-323 (TTDGHRPTAEAPNTT; UniProt P40967 309-323, looked up, fragment)
Type of response [1, 6]: 2 | proliferation [4]: Yes

gp100 p152: 15-mer of gp100 library, residues 605-619 (VLMAVVLASLIYRRR; UniProt P40967 605-619, looked up, fragment)
Type of response ([1]; epitopes for Th0, Th1, Th2 cells, patient 094-009, Post): 0 | Type of response [1, 6]: 2 | Type of response ([1]; epitopes for Th0, Th1, Th2 cells, patient 094-015, Post): 0 | CD4+ T cell epitope identification (cytokines at 48 h, CFSE dilution day 8) ([1]; two melanoma patients, peptides of TRP-1 cluster#25 or gp100 cluster#15): are epitopes for CD4^+ T cells | proliferation ([5]; patient 094-009, Post): Yes | proliferation ([5]; patient 094-015, Post): Yes | proliferation [4]: Yes
